From patent US11008346B2, “Beta-lactamase inhibitors” (priority 2014, dated 2021)
Read-outs that look alike come from different tables or passages of the source.

Assays:
[1] = test system: K. pneumoniae 156319 expressing KPC-3; assay: broth microdilution MIC, K. pneumoniae KPC-3; format: cell-based; conditions: Fixed Mero (meropenem) 4 μg/mL
How it was run: (§1)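 Following CLSI broth microdilution, plates were read by eye for MIC after 16–20 h incubation at 37 °C. Each well held a fixed 4 μg/mL β-lactam overlay plus test compound serially halved from 32 to 0.25 μg/mL in CAMHB. Inocula came from 3–5 h broth cultures.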

[2] = test system: S. aureus MSSA-7 producing penicillinase PC-1; assay: broth microdilution MIC, S. aureus PC-1; format: cell-based; conditions: Fixed Pip (piperacillin) 4 μg/mL
Excerpt: (§2) To determine the ability of test compounds to potentiate the inhibition of the growth of bacterial strains that produce beta-lactamase enzymes, classic cell based broth microdilution MIC assays were employed. Six bacteria strains producing beta-lactamase enzymes were used: E. coli expressing the Class A Extended Spectrum Beta-Lactamase (ESBL) CTX-M-15, E. cloacae expressing the Class C P99, K. pneumoniae expressing the Class A carbapenemase KPC-3, P. aeruginosa expressing the Class B carbapenemase VIM-2, K pneumoniae expressing the class A carbapenemase KPC-2 and the class B carbapenemase VIM-4, and S. aureus producing the Class A penicillinase PC-1. The assay was conducted in Cation Adjusted Mueller Hinton Broth (CAMHB, BD #212322, BD Diagnostic Systems, Sparks, Md.). Bacteria strains were grown for 3-5 hours in CAMBH broth. Test compounds were added to a microtiter plate in 2-fold serial dilutions in CAMHB in a final concentration range of 32 μg/mL to 0.25 μg/ml. An overlay of CAMHB containing a Beta-lactam was added to the compounds at a final static concentration of 4 μg/ml. […] In addition to the titration of test compounds the MICs of a panel of control beta-lactams is also tested to ensure the strains are behaving consistently from test to test. Once the test compound and antibiotics are added the plates can be inoculated according to CLSI broth microdilution method. After inoculation the plates are incubated for 16-20 hours at 37° C., then the Minimal Inhibitory Concentration (MIC) of the test compound is determined visually.
(§3) Using the methodology described above, examples of the current invention were evaluated for their ability to inhibit the growth of β-lactamase-producing bacteria in the presence of a β-lactam antibiotic.
(§4) Representative results are shown in Table 4 where A represents an MIC of the fixed β-lactam antibiotic in the presence of >32 µg/mL of a β-lactamase inhibitor of exemplary compounds, B represents the MIC in the presence of between 8 and 32 µg/mL of a β-lactamase inhibitor of exemplary compounds, and C represents the MIC in the presence of ≤4 µg/mL of a β-lactamase inhibitor of exemplary compounds. NT=Not Tested.

[3] = molecular target: T1, VIM-2 metallo β-lactamase (Pseudomonas aeruginosa, UniProt Q9K2N0); assay: β-lactamase enzyme inhibition, VIM-2; format: biochemical; conditions: Nitrocefin 100 μM, 486 nm; 15 min at 37° C. preincubation; read-out: IC50 VIM-2 (Class B)
T1 construct: made in house; host or cells: E. coli BL21(DE3)
How it was run: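 Inhibitor and enzyme sat together 15 min at 37° C before 100 μM nitrocefin (final) was added and 486 nm absorbance read for 10 min. IC50 is the concentration halving initial hydrolysis rate relative to uninhibited wells. Protein came from Q sepharose anion exchange at pH 7.5, repeated to >90% purity.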

[4] = molecular target: T2, OXA-1 β-lactamase (Escherichia coli, UniProt P13661); assay: β-lactamase enzyme inhibition, OXA-1; format: biochemical; conditions: Nitrocefin 100 μM, 486 nm; 15 min at 37° C. preincubation; read-out: IC50 OXA-1 (Class D)
T2 construct: made in house; host or cells: E. coli BL21(DE3)
T2 sequence (P13661 26-276): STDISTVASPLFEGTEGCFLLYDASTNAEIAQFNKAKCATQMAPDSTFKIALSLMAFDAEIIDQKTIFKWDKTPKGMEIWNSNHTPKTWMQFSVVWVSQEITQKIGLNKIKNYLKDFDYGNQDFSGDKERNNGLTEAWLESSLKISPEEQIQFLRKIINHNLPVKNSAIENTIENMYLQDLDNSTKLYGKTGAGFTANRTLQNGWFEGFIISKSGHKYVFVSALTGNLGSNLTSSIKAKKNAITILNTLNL
How it was run: (§5)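 IC50 was the inhibitor concentration halving the initial hydrolysis rate versus no-inhibitor wells, following a 15 min 37° C. enzyme–inhibitor preincubation. Substrates: imipenem read at 300 nm for KPC-2, cefotaxime at 260 nm for SHV-5, and nitrocefin (100 μM final) at 486 nm for OXA-1 and p99 AmpC. Enzymes were recombinant untagged proteins from E. coli BL21(DE3).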

[5] = test system: E. coli ESBL4 expressing CTX-M-15; assay: broth microdilution MIC, E. coli CTX-M-15; format: cell-based; conditions: Fixed CAZ (ceftazidime) 4 μg/mL
How it was run: as §1

[6] = molecular target: T3, KPC-2 β-lactamase (Klebsiella pneumoniae, UniProt Q9F663); assay: β-lactamase enzyme inhibition, KPC-2; format: biochemical
T3 construct: made in house; host or cells: E. coli BL21(DE3)
T3 sequence (Q9F663 25-293, looked up): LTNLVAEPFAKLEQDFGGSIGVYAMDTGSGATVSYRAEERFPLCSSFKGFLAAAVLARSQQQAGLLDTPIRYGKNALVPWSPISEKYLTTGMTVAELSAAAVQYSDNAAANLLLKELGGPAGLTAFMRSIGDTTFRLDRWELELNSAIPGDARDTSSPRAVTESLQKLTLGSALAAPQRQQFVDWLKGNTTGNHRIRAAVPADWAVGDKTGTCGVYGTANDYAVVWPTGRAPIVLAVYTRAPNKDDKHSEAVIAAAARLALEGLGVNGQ
How it was run: as §5

[7] = molecular target: T4, SHV-5 β-lactamase (Klebsiella pneumoniae, UniProt P0A3M1); assay: β-lactamase enzyme inhibition, SHV-5; format: biochemical
T4 construct: made in house; host or cells: E. coli BL21(DE3)
T4 sequence (P0A3M1 22-286): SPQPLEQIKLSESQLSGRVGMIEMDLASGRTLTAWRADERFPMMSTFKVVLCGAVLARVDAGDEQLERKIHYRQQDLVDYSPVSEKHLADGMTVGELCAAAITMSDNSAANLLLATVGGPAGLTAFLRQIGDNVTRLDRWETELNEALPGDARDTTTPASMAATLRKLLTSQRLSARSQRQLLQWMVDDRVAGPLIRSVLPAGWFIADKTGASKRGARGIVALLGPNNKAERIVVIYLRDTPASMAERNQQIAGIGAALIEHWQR
How it was run: as §5

[8] = test system: E. cloacae 144200 expressing Class C P99 AmpC; assay: broth microdilution MIC, E. cloacae P99; format: cell-based; conditions: Fixed CAZ (ceftazidime) 4 μg/mL
How it was run: as §1

[9] = molecular target: T5, p99 AmpC β-lactamase (Enterobacter cloacae, UniProt P05364); assay: β-lactamase enzyme inhibition, p99 AmpC; format: biochemical
T5 construct: made in house; host or cells: E. coli BL21(DE3)
T5 sequence (P05364 21-381): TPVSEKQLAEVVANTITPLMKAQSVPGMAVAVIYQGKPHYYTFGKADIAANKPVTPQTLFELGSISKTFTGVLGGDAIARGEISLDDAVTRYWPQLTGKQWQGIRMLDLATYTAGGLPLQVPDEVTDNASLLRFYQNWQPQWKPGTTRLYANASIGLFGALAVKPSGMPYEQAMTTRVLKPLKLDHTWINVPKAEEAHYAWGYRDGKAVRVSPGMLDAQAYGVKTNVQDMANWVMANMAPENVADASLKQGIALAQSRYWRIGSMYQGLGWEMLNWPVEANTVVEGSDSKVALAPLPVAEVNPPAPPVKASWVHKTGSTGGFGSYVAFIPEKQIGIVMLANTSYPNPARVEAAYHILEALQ
How it was run: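 Inhibitor and enzyme were incubated 15 min at 37°C first. The enzyme was recombinant p99 AmpC, untagged, from E. coli BL21(DE3), purified by ion-exchange and size-exclusion chromatography.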

[10] = test system: K. pneumoniae A-1797 expressing KPC-2 and VIM-4; assay: broth microdilution MIC, K. pneumoniae KPC-2 and VIM-4; format: cell-based; conditions: Fixed Mero (meropenem) 4 μg/mL
How it was run: as §1

[11] = test system: P. aeruginosa Ps296 expressing VIM-2; assay: broth microdilution MIC, P. aeruginosa VIM-2; format: cell-based; conditions: Fixed Mero (meropenem) 4 μg/mL
Excerpt: as §2, §3, §4

| SMILES | MIC of exemplary compounds in presence of fixed β-lactams, K.P. 156319 KPC-3 [1] | MIC of exemplary compounds in presence of fixed β-lactams, S. aureus MSSA-7 PC-1 [2] | IC50 [3] | IC50 [4] | MIC of exemplary compounds in presence of fixed β-lactams, E. coli ESBL4 CTX-M-15 [5] | IC50 [6] | IC50 [7] | MIC of exemplary compounds in presence of fixed β-lactams, E. cl. 144200 p99 AmpC [8] | IC50 [9] | MIC of exemplary compounds in presence of fixed β-lactams, K.P. A-1797 KPC-2 VIM-4 [10] | MIC of exemplary compounds in presence of fixed β-lactams, P. aerug. Ps296 VIM-2 [11] | IC50 ([6]; imipenem substrate, 300 nm, 15 min at 37° C. preincubation, read-out: IC50 KPC-2 (Class A)) |
| --- | --- | --- | --- | --- | --- | --- | --- | --- | --- | --- | --- | --- |
| CCCC(=O)N[C@H]1Cc2cccc(C(=O)O)c2OB1O [Example 1, (R)-3-Butyrylamino-2-hydroxy-3,4-dihydro-2H-benzo[e][1,2]oxaborinine-8-carboxylic acid] | C (C represents the MIC in the presence of ≤4 g/mL of a β-lactamase inhibitor) | C (C represents the MIC in the presence of ≤4 g/mL of a β-lactamase inhibitor) | 1000 to 10000 nM | < 100 nM | C (C represents the MIC in the presence of ≤4 g/mL of a β-lactamase inhibitor) | < 100 nM | < 100 nM | C (C represents the MIC in the presence of ≤4 g/mL of a β-lactamase inhibitor) | < 100 nM | A (A represents an MIC of the fixed β-lactam antibiotic in the presence of >32 g/mL of a β-lactamase inhibitor) | A (A represents an MIC of the fixed β-lactam antibiotic in the presence of >32 g/mL of a β-lactamase inhibitor) |  |
| N#CCC(=O)N[C@H]1Cc2cccc(C(=O)O)c2OB1O [Example 2, (R)-3-(2-Cyano-acetylamino)-2-hydroxy-3,4-dihydro-2H-benzo[e] [1,2]oxaborinine-8-carboxylic acid] | C (C represents the MIC in the presence of ≤4 g/mL of a β-lactamase inhibitor) | C (C represents the MIC in the presence of ≤4 g/mL of a β-lactamase inhibitor) | 1000 to 10000 nM | < 100 nM | C (C represents the MIC in the presence of ≤4 g/mL of a β-lactamase inhibitor) |  | < 100 nM | C (C represents the MIC in the presence of ≤4 g/mL of a β-lactamase inhibitor) | < 100 nM | C (C represents the MIC in the presence of ≤4 g/mL of a β-lactamase inhibitor) | B (B represents the MIC in the presence of between 8 and 32 g/mL of a β-lactamase inhibitor) | 100 to 1000 nM |
| CCC(=O)N[C@H]1Cc2cccc(C(=O)O)c2OB1O [Example 62, (R)-2-Hydroxy-3-propionylamino-3,4-dihydro-2H-benzo[e][1,2]oxaborinine-8-carboxylic acid] | C (C represents the MIC in the presence of ≤4 g/mL of a β-lactamase inhibitor) | C (C represents the MIC in the presence of ≤4 g/mL of a β-lactamase inhibitor) | 1000 to 10000 nM | < 100 nM | C (C represents the MIC in the presence of ≤4 g/mL of a β-lactamase inhibitor) | < 100 nM | 100 to 1000 nM | C (C represents the MIC in the presence of ≤4 g/mL of a β-lactamase inhibitor) |  | B (B represents the MIC in the presence of between 8 and 32 g/mL of a β-lactamase inhibitor) | B (B represents the MIC in the presence of between 8 and 32 g/mL of a β-lactamase inhibitor) |  |
